Results from patent US5684034A, “1H-indole-3-acetamide sPLA2 inhibitors” (Eli Lilly and Company, priority 1995, dated 1997).

biological target: T1, recombinant human secreted phospholipase A2 (Homo sapiens, UniProt P14555); experiment: Human secreted phospholipase A2 inhibition test (chromogenic assay, diheptanoyl thio-PC substrate); format: biochemical; conditions: Inhibition of human secreted PLA2 IC50 ± mean deviation (3-5 tests), pH 7.5, 40° C., 30 minutes, 405 nm
T1 sequence (P14555 21-144): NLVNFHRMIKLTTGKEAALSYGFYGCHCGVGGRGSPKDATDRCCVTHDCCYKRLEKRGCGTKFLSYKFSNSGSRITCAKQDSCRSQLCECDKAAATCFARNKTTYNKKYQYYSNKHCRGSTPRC
Description: The following chromogenic assay procedure was used to identify and evaluate inhibitors of recombinant human secreted phospholipase A2. The assay described herein has been adapted for high volume screening using 96 well microtiter plates.
A measured volume of racetic dipheptanoyl thio PC supplied in chloroform at a concentration of 100 mg/ml is taken to dryness and redissolved in 10 millimolar TRITON X-100™ nonionic detergent aqueous solution. Reaction Buffer is added to the solution, then DTNB to give the Reaction Mixture.
The reaction mixture thus obtained contains 1 mM diheptanoly thio-PC substrate, 0.29 mm Triton X-100™ detergent, and 0.12 mm DTMB in a buffered aqueous solution at pH 7.5.
1. Add 0.2 ml reaction mixture to all wells;
2. Add 10 ul test compound (or solvent blank) to appropriate wells, mix 20 seconds:
3. Add 50 nanograms of sPLA2 (10 microliters) to appropriate wells;
4. incubate plate at 40° C. for 30 minutes;
All compounds were tested in triplicate. […] Each sample was titrated in triplicate and result values were averaged for plotting and calculation of IC50 values. […] Each IC50 value was determined three times.

| Compound | IC50 [nM] |
| --- | --- |
| Cc1c(CC(N)=O)c2cc(O)ccc2n1Cc1ccccc1 [Example 2, 5-Hydroxy-2-methyl-1-(phenylmethyl)-1H-indole-3-acetamide] | 840 ± 380 |
| Cc1c(CC(N)=O)c2cc(OCC(=O)O)ccc2n1Cc1ccccc1 [Example 19, 2-[[3-(2-Amino-2-oxoethyl)-2-methyl-1-(phenylmethyl)-1H-indol-5-yl]oxy]acetic acid] | 1160 ± 410 |
| Cc1c(CC(N)=O)c2cc(OCCC(=O)O)ccc2n1Cc1ccccc1 [Example 21, 3-[[3-(2-Amino-2-oxoethyl)-2-methyl-1-(phenylmethyl)-1H-indol-5-yl]oxy]-propanic acid] | 430 ± 230 |
| NC(=O)Cc1c(Cl)n(Cc2ccccc2)c2ccc(OCCCC(=O)O)cc12 [Example 24, 4-[[3-(2-Amino-2-oxoethyl)-2-chloro-1-(phenylmethyl)-1H-indole-5-yl]oxy]butanoic acid] | 60 ± 20 |
| Cc1c(CC(N)=O)c2cc(NCCC(=O)O)ccc2n1Cc1ccccc1 [Example 27, 3-[[3-(2-Amino-2-oxoethyl)-2-methyl-1-(phenylmethyl)-1H-indol-5-yl]amino]propanoic acid] | 3300 ± 100 |
| CCOC(=O)CCCCOc1ccc2c(CC(N)=O)c(C)n(Cc3ccccc3)c2c1 [Example 33, 5-[[3-(2-Amino-2-oxoethyl)-2-methyl-1-(phenylmethyl)-1H-indol-6-yl]oxy]pentanoic acid ethyl ester] | 300 ± 120 |
| Cc1c(CC(N)=O)c2c(O)cccc2n1Cc1ccccc1 [Example 36, 4-Hydroxy-2-methyl-1-(phenylmethyl)-1H-indole-3-acetamide] | 7460 ± 1660 |
| CSc1c(CC(N)=O)c2cc(OCCCC(=O)O)ccc2n1Cc1ccccc1 [Example 46, 4-[[3-(2-Amino-2-oxoethyl)-2-(methylthio)-1-(phenylmethyl)-1H-indol-5-yl]oxy]butanoic acid] | 160 ± 190 |
| CSc1c(CC(N)=O)c2cc(OCCCC(N)=O)ccc2n1Cc1ccccc1 [Example 47, 5-(4-Amino-4-oxobutoxy)-2-(methylthio)-1-(phenylmethyl)-1H-indole-3-acetamide] | 90 ± 60 |

same assay, conditions: pH 7.5, 40° C., 30 minutes, 405 nm; read-out: Inhibition of human secreted PLA2 IC50 ± mean deviation (3-5 tests)

| Compound | IC50 [nM] |
| --- | --- |
| Cc1ccc2c(CC(N)=O)c(C)n(Cc3ccccc3)c2c1 [Example 1, 2,6-Dimethyl-1-(phenylmethyl)-1H-indole-3-acetamide] | 1330 ± 450 |
| COc1ccc2c(c1)c(CC(N)=O)cn2Cc1ccccc1 [Example 3, 5-Methoxy-1-(phenylmethyl)-1H-indole-3-acetamide] | 3700 ± 2820 |
| COc1ccc2c(c1)c(CC(N)=O)c(C)n2Cc1c(Cl)cccc1Cl [Example 6, 1-(2,6-Dichlorophenylmethyl)-5-methoxy-2-methyl-1H-indole-3-acetamide] | 1300 ± 290 |
| COc1ccc2c(c1)c(CC(N)=O)c(C)n2Cc1ccc(OCc2ccccc2)cc1 [Example 7, 1-[(4-Benzyloxyphenyl)methyl]-5-methoxy-2-methyl-1H-indole-3-acetamide] | 5450 ± 1620 |
| COc1ccc2c(c1)c(CC(N)=O)c(C)n2Cc1ccccn1 [Example 8, 5-Methoxy-2-methyl-1-[(2-pyridyl)methyl]-1H-indole-3-acetamide] | 21400 ± 8550 |
| CCCc1c(CC(N)=O)c2cc(OC)ccc2n1Cc1ccccc1 [Example 10, 5-Methoxy-1-(phenylmethyl)-2-propyl-1H-indole-3-acetamide] | 38100 ± 2820 |
| COc1ccc2c(c1)c(CC(N)=O)c(Cl)n2Cc1ccccc1 [Example 11, 2-Chloro-5-methoxy-1-(phenylmethyl)-1H-indole-3-acetamide] | 250 ± 30 |
| Cc1c(CC(N)=O)c2cc(OCc3ccccc3)ccc2n1Cc1ccccc1 [Example 13, 5-Benzyloxy-2-methyl-1-(phenylmethyl)-1H-indole-3-acetamide] | 920 ± 240 |
| CCCCCCCCCCn1c(C)c(CC(N)=O)c2cc(OC)ccc21 [Example 14, 1-Decyl-5-methoxy-2-methyl-1H-indole-3-acetamide] | 8480 ± 5250 |
| Cc1c(CC(N)=O)c2cc(C(N)=O)ccc2n1Cc1ccccc1 [Example 15, 5-Aminocarbonyl-2-methyl-1-(phenylmethyl)-1H-indole-3-acetamide] | 1510 ± 580 |
| Cc1c(CC(N)=O)c2cc(N)ccc2n1Cc1ccccc1 [Example 17, 5-Amino-2-methyl-1-(phenylmethyl)-1H-indole-3-acetamide] | 1610 ± 440 |
| COC(=O)CCOc1ccc2c(c1)c(CC(N)=O)c(C)n2Cc1ccccc1 [Example 20, 3-[[3-(2-Amino-2-oxoethyl)-2-methyl-1-(phenylmethyl)-1H-indol-5-yl]oxy]-propanic acid methyl ester] | 1050 ± 110 |
| COC(=O)CCNc1ccc2c(c1)c(CC(N)=O)c(C)n2Cc1ccccc1 [Example 25, 3-[[3-(2-Amino-2-oxoethyl)-2-methyl-1-(phenylmethyl)-1H-indol-5-yl]amino]propanoic acid methyl ester] | 3340 ± 460 |
| COC(=O)CCN(CCC(=O)OC)c1ccc2c(c1)c(CC(N)=O)c(C)n2Cc1ccccc1 [Example 26, 3,3'-[[3-(2-Amino-2-oxoethyl)-2-methyl-1-(phenylmethyl)-1H-indol-5-yl]imino]bis[propanoic acid]dimethyl ester] | 2490 |
| Cc1c(CC(N)=O)c2cc(NCCC(=O)NN)ccc2n1Cc1ccccc1 [Example 28, 3-[[3-(2-Amino-2-oxoethyl)-2-methyl-1-(phenylmethyl)-1H-indol-5-yl]amino]propanoic acid hydrazide] | 1550 ± 930 |
| Cc1c(CC(N)=O)c2ccc(O)cc2n1Cc1ccccc1 [Example 30, 6-Hydroxy-2-methyl-1-(phenylmethyl)-1H-indole-3-acetamide] | 3610 ± 750 |

| Compound | IC50 [nM] |
| --- | --- |
| CCOC(=O)CCCOc1ccc2c(CC(N)=O)c(C)n(Cc3ccccc3)c2c1 [Example 31, 4-[[3-(2-Amino-2-oxoethyl)-2-methyl-1-(phenylmethyl)-1H-indol-6-yl]oxy]butanoic acid ethyl ester] | 450 ± 80 |
| Cc1c(CC(N)=O)c2ccc(OCCCC(=O)O)cc2n1Cc1ccccc1 [Example 32, 4-[[3-(2-Amino-2-oxoethyl)-2-methyl-1-(phenylmethyl)-1H-indol-6-yl]oxy]butanoic acid] | 12200 ± 550 |
| Cc1c(CC(N)=O)c2ccc(OCCCCC(=O)O)cc2n1Cc1ccccc1 [Example 34, 5-[[3-(2-Amino-2-oxoethyl)-2-methyl-1-(phenylmethyl)-1H-indol-6-yl]oxy]pentanoic acid] | 7960 ± 1220 |
| COc1cccc2c1c(CC(N)=O)c(C)n2Cc1ccccc1 [Example 35, 4-Methoxy-2-methyl-1-(phenylmethyl)-1H-indole-3-acetamide] | 2360 ± 150 |
| CCOC(=O)CCCOc1cccc2c1c(CC(N)=O)c(C)n2Cc1ccccc1 [Example 37, 4-[[3-(2-Amino-2-oxoethyl)-2-methyl-1-(phenylmethyl)-1H-indol-4-yl]oxy]butanoic acid ethyl ester] | 9440 ± 1440 |
| COc1ccc2c(c1)c(CC(N)=O)c(Br)n2Cc1ccccc1 [Example 42, 2-Bromo-5-methoxy-1-(phenylmethyl)-1H-indole-3-acetamide] | 230 ± 60 |
| NC(=O)Cc1c(Br)n(Cc2ccccc2)c2ccc(OCCCC(=O)O)cc12 [Example 43, 4-[[3-(2-Amino-2-oxoethyl)-2-bromo-1-(phenylmethyl)-1H-indol-5-yl]oxy]butanoic acid] | 70 ± 30 |
| CCOC(=O)CCCOc1ccc2c(c1)c(CC(N)=O)c(SC)n2Cc1ccccc1 [Example 45, 4-[[3-(2-Amino-2-oxoethyl)-2-(methylthio)-1-(phenylmethyl)-1H-indol-5-yl]oxy]butanoic acid ethyl ester] | 1550 ± 510 |
| CCCCCCCCCCCCCCn1c(C)c(CC(N)=O)c2cc(OC)ccc21 [Example 48, 5-Methoxy-2-methyl-1-tetradecyl-1H-indole-3-acetamide] | > 100000 |
| CCCCCCCCCCCCCCn1c(C)c(CC(N)=O)c2cc(OCCCC(=O)O)ccc21 [Example 49] | 470 ± 50 |
| CCCCCCn1c(C)c(CC(N)=O)c2cc(OCCCC(=O)O)ccc21 [Example 50] | 2470 ± 1310 |
| CCCCCCCCn1c(C)c(CC(N)=O)c2cc(OC)ccc21 [Example 51, 5-Methoxy-2-methyl-1-octyl-1H-indole-3-acetamide] | 8280 ± 4330 |
| CCCCCCCCn1c(C)c(CC(N)=O)c2cc(OCCCC(=O)O)ccc21 [Example 52] | 770 ± 270 |
| CCCCCCCCCCn1c(C)c(CC(N)=O)c2cc(OCCCC(=O)O)ccc21 [Example 53] | 680 |
| Cc1c(CC(N)=O)c2cc(OCCCC(=O)O)ccc2n1CC1CCCCC1 [Example 54] | 650 ± 150 |
| CCc1c(CC(N)=O)c2cc(O)ccc2n1Cc1ccccc1 [Example 56, 2-Ethyl-5-hydroxy-1-(phenylmethyl)-1H-indole-3-acetamide] | 340 ± 100 |

same assay, conditions: unit printed aM; pH 7.5, 40° C., 30 minutes, 405 nm; read-out: Inhibition of human secreted PLA2 IC50 ± mean deviation (3-5 tests)

| Compound | IC50 [nM] |
| --- | --- |
| CSc1c(CC(N)=O)c2cc(O)ccc2n1Cc1ccccc1 [Example 44, 5-Hydroxy-2-(methylthio)-1-(phenylmethyl)-1H-indole-3-acetamide] | 380 ± 140 |

same assay, conditions: unit printed um; pH 7.5, 40° C., 30 minutes, 405 nm; read-out: Inhibition of human secreted PLA2 IC50 ± mean deviation (3-5 tests)

| Compound | IC50 [nM] |
| --- | --- |
| COc1ccc2c(CC(N)=O)c(C)n(Cc3ccccc3)c2c1 [Example 29, 6-Methoxy-2-methyl-1-(phenylmethyl)-1H-indole-3-acetamide] | 1230 ± 330 |
